Assay results taken from US8784795B2, “Methods for determining personalized treatment compositions for prostate cancer and breast cancer” (Caldera Health Ltd., priority 2012, dated 2014).

Columns and labels:
[1] = test system: blood cells; assay: Analysis of blood cells treated with Leukine in vivo for changes in perforin levels
Text: […]

[2] = test system: prostate cancer; settings: patients; cited from earlier work
[3] = test system: hormone refractory prostate cancer; settings: clinical trial; cited from earlier work

Molecule | change in perforin levels of blood cells [1] | control of prostate cancer [2] | response rate [3] [%]
Leukine®: granulocyte-macrophage colony stimulating factor (GM-CSF; also known as sargramostim; trade name Leukine®) | major increases | long-term control of prostate cancer in a substantial number of patients | –
CC(=O)N1CCN(c2ccc(OCC3COC(Cn4ccnc4)(c4ccc(Cl)cc4Cl)O3)cc2)CC1 (stereo not drawn) [ketoconazole] | – | – | 50
